Data taken from patent US20070244030A1, “Method for Assessing Cancerous State” (SUMITOMO CHEMICAL COMPANY, LIMITED, priority 2003, published 2007).

Key:
Neurofilament3 gene [1] = assay: Real Time PCR of Neurofilament3 mRNA in HPAC cultured with methylation inhibitor; type: cell-based, human; conditions: HPAC pancreatic cancer cell line, cells recovered on fourth day, not detected without inhibitor
Experimental: (§1) Two kinds of human-derived pancreatic cancer cell lines (PANC-1 and HPAC) were seeded at a density of about 6×10^5 cells/10 cm plate, and cultured using an exclusively used medium. On the first day after seeding, 5-aza-2′-deoxytidine (manufactured by Sigma) (hereinafter, referred to as 5Aza-dC) which is a methylation inhibitor was added to a medium to give the concentration of 0.5 or 1 μM. Twenty four hours after addition of 5Aza-Dc, the medium was exchanged with the aforementioned medium to which no 5Aza-dC was added, and culturing was continued. Then, on the third day after seeding, 5Aza-dC was added to the medium similarly. […]
(§2) A reaction solution of PCR was used which was obtained by mixing 50 ng of a cDNA as a template, each 1 μl of two kinds of 10 pmol/μl aforementioned primer solution, 4 μl of 2.5 mM dNTP, 4 μl of 5 mM dUTP, 5 μl of 10×SYBR Green PCR Buffer, 6 μof 25 mM MgCl2 and 0.3 μl of a 5 U/μl thermostable DNA polymerase (AmpliTaq Gold), 0.5 μl of AmpEraseUNG and adding sterilized ultrapure water thereto to an amount of solution of 50 μl. […] When a DNA derived from mRNA of Neurofilament3 gene and GAPDH gene was amplified, after the reaction solution Was retained at 95° C. for 10 minutes, Real Time PCR was performed at the conditions under which each cycle was 30 seconds at 95° C., 30 seconds at 59° C. and 30 seconds at 72° C. to quantitate Neurofilament3 gene and GAPDH gene.

Neurofilament3 gene [2] = assay: Real Time PCR of Neurofilament3 mRNA in PANC-1 cultured with methylation inhibitor; type: cell-based, human; conditions: PANC-1 pancreatic cancer cell line, cells recovered on fourth day, not detected without inhibitor
Experimental: as §1, §2

[3] = 0.5 μM 5Aza-dC added on first and third day
[4] = 1 μM 5Aza-dC added on first and third day

Measured: DNA derived from a mRNA of Neurofilament3 gene (expression of Neurofilament3 gene)

Nc1ncn([C@H]2C[C@H](O)[C@@H](CO)O2)c(=O)n1 [5Aza-dC, 5-aza-2′-deoxytidine]
detected: Neurofilament3 gene [1]; [3] | Neurofilament3 gene [1]; [4] | Neurofilament3 gene [2]; [3] | Neurofilament3 gene [2]; [4]
